According to patent US6838557B1, “Process for making a chelating agent for labeling biomolecules using preformed active esters” (Board of Regents The University of Texas System, priority 2002, dated 2005):

Experiment: Stability of DOTA mono-NHS in water by 1H NMR (rate of change in the ratio Afree/Abound)
Type: physicochemical
Details: neutral pH, read-out: half-life for hydrolysis
Text: For example, ^1H NMR spectra, such as that illustrated in FIG. 1, were used to measure the ratio of the areas (Afree/Abound) of the ^1H NMR signal corresponding to NHS free in solution (δfree −2.6 ppm; Free NHS), relative to the signal corresponding to NHS covalently bound to DOTA (δbound −2.85 ppm; Bound NHS). […] Similar results were obtained by measuring the relative areas of the ^13C signals corresponding to free and bound NHS (δbound −25.5 ppm and δfree −25.2 ppm; FIG. 2).
Similar to that described above, the NMR data was used to estimate the percentage of free NHS. […] The stability of DOTA mono-NHS in water was also assessed using ^1H NMR by measuring the rate of change in the ratio Afree/Abound at neutral pH.

half-life: ~30 min
SMILES: O=C(O)CN1CCN(CC(=O)O)CCN(CC(=O)ON2C(=O)CCC2=O)CCN(CC(=O)O)CC1 [DOTA mono-NHS, 1,4,7,10-tetraazacyclododecane-1,4,7,10-tetra(aceticacid)-10-mono(N-hydroxysuccinimidyl ester)]
